Measured values as given in ChEMBL document CHEMBL5137133, “Effects of the Anthocyanin Hirsutidin on Gastric Ulcers: Improved Healing through Antioxidant Mechanisms” (J Nat Prod, 2022).
Activity calls are given as the source filed them. No cut-off for these calls is given here.

Assays:
Rattus norvegicus [1] = test: Anti-ulcer activity in Wistar rat model of ethanol-induced gastric ulcer assessed as restoration of endogenous GSH levels at 10 to 20 mg/kg, po administered once daily for 7 days followed by ethanol injection after 1 hr post last dose and measured after 4 hrs by Ellman's method; format: functional, organism-based; conditions: dose 10-20 mg/kg, time 173.0 hrs
[2] = Acute toxicity in po dosed mouse assessed as morbidity; format: organism-based; conditions: in vivo
Rattus norvegicus [3] = test: Anti-ulcer activity in Wistar rat model of ethanol-induced gastric ulcer assessed as reduction in ulcer score index at 10 to 20 mg/kg, po administered once daily for 7 days followed by ethanol injection after 1 hr post last dose and measured after 4 hrs; format: functional, organism-based; conditions: dose 10-20 mg/kg, time 173.0 hrs
Rattus norvegicus [4] = test: Anti-ulcer activity in Wistar rat model of ethanol-induced gastric ulcer assessed as attenuation of AST level at 10 to 20 mg/kg, po administered once daily for 7 days followed by ethanol injection after 1 hr post last dose and measured after 4 hrs by ELISA; format: functional; conditions: dose 10-20 mg/kg, time 173 hrs
Rattus norvegicus [5] = test: Anti-ulcer activity in Wistar rat model of ethanol-induced gastric ulcer assessed as protection against gastric tissue damages at 10 to 20 mg/kg, po administered once daily for 7 days followed by ethanol injection after 1 hr post last dose and measured after 4 hrs by ELISA; format: functional, organism-based; conditions: dose 10-20 mg/kg, time 173.0 hrs
Rattus norvegicus [6] = test: Anti-ulcer activity in Wistar rat model of ethanol-induced gastric ulcer assessed as protection of NO depletion at 10 to 20 mg/kg, po administered once daily for 7 days followed by ethanol injection after 1 hr post last dose and measured after 4 hrs by ELISA; format: functional; conditions: dose 10-20 mg/kg, time 173 hrs
Rattus norvegicus [7] = test: Anti-ulcer activity in Wistar rat model of ethanol-induced gastric ulcer assessed as increase in gastric pH at 20 mg/kg, po administered once daily for 7 days followed by ethanol injection after 1 hr post last dose; format: functional; conditions: time 173 hrs
[8] = Acute toxicity in po dosed mouse assessed as mortality; format: organism-based; conditions: in vivo
Rattus norvegicus [9] = test: Anti-ulcer activity in Wistar rat model of ethanol-induced gastric ulcer assessed as reduction in total acidity levels at 10 to 20 mg/kg, po administered once daily for 7 days followed by ethanol injection after 1 hr post last dose and measured after 4 hrs; format: functional; set-up: scale not given: the % may be the effect or the level left; conditions: dose 10-20 mg/kg, time 173 hrs
Rattus norvegicus [10] = test: Anti-ulcer activity in Wistar rat model of ethanol-induced gastric ulcer assessed as restoration of endogenous CAT levels at 10 to 20 mg/kg, po administered once daily for 7 days followed by ethanol injection after 1 hr post last dose and measured after 4 hrs by H2O2 decomposition assay; format: functional, organism-based; conditions: dose 10-20 mg/kg, time 173.0 hrs
Rattus norvegicus [11] = test: Anti-ulcer activity in Wistar rat model of ethanol-induced gastric ulcer assessed as attenuation of ALT level at 10 to 20 mg/kg, po administered once daily for 7 days followed by ethanol injection after 1 hr post last dose and measured after 4 hrs by ELISA; format: functional; conditions: dose 10-20 mg/kg, time 173 hrs
Rattus norvegicus [12] = test: Anti-ulcer activity in Wistar rat model of ethanol-induced gastric ulcer assessed as increase in PGE2 levels at 10 to 20 mg/kg, po administered once daily for 7 days followed by ethanol injection after 1 hr post last dose and measured after 4 hrs by ELISA; format: functional, organism-based; conditions: dose 10-20 mg/kg, time 173.0 hrs
Rattus norvegicus [13] = test: Anti-ulcer activity in Wistar rat model of ethanol-induced gastric ulcer assessed as restoration of endogenous SOD levels at 10 to 20 mg/kg, po administered once daily for 7 days followed by ethanol injection after 1 hr post last dose and measured after 4 hrs; format: functional, organism-based; conditions: dose 10-20 mg/kg, time 173.0 hrs
Rattus norvegicus [14] = test: Anti-ulcer activity in Wistar rat model of ethanol-induced gastric ulcer assessed as reduction in serum IL-6 level at 10 to 20 mg/kg, po administered once daily for 7 days followed by ethanol injection after 1 hr post last dose and measured after 4 hrs by ELISA; format: functional, organism-based; conditions: dose 10-20 mg/kg, time 173.0 hrs
Rattus norvegicus [15] = test: Anti-ulcer activity in Wistar rat model of ethanol-induced gastric ulcer assessed as attenuation of TNFalpha level at 10 to 20 mg/kg, po administered once daily for 7 days followed by ethanol injection after 1 hr post last dose and measured after 4 hrs by ELISA; format: functional; conditions: dose 10-20 mg/kg, time 173 hrs
Rattus norvegicus [16] = test: Anti-ulcer activity in Wistar rat model of ethanol-induced gastric ulcer assessed as reduction in serum IL-1beta level at 10 to 20 mg/kg, po administered once daily for 7 days followed by ethanol injection after 1 hr post last dose and measured after 4 hrs by ELISA; format: functional, organism-based; conditions: dose 10-20 mg/kg, time 173.0 hrs
Rattus norvegicus [17] = test: Anti-ulcer activity in Wistar rat model of ethanol-induced gastric ulcer assessed as reduction in MDA levels at 10 to 20 mg/kg, po administered once daily for 7 days followed by ethanol injection after 1 hr post last dose and measured after 4 hrs by Wills method; format: functional; set-up: scale not given: the % may be the effect or the level left; conditions: dose 10-20 mg/kg, time 173 hrs
Rattus norvegicus [18] = test: Anti-ulcer activity in Wistar rat model of ethanol-induced gastric ulcer assessed as reduction in MPO levels at 10 to 20 mg/kg, po administered once daily for 7 days followed by ethanol injection after 1 hr post last dose and measured after 4 hrs; format: functional, organism-based; conditions: dose 10-20 mg/kg, time 173.0 hrs
Rattus norvegicus [19] = test: Anti-ulcer activity in Wistar rat model of ethanol-induced gastric ulcer assessed as increase in gastric pH at 10 mg/kg, po administered once daily for 7 days followed by ethanol injection after 1 hr post last dose and measured after 4 hrs; format: functional; conditions: time 173 hrs
Rattus norvegicus [20] = test: Anti-ulcer activity in Wistar rat model of ethanol-induced gastric ulcer assessed as attenuation of ALP level at 10 to 20 mg/kg, po administered once daily for 7 days followed by ethanol injection after 1 hr post last dose and measured after 4 hrs by ELISA; format: functional; conditions: dose 10-20 mg/kg, time 173 hrs

COc1cc(O)c2cc(O)c(-c3cc(OC)c(O)c(OC)c3)[o+]c2c1
Activity (Rattus norvegicus [1]): Active | Activity [2]: Non-Toxic | Activity (Rattus norvegicus [3]): Active | Activity (Rattus norvegicus [4]): 35.3% | Activity (Rattus norvegicus [5]): Active | Activity (Rattus norvegicus [6]): 85.1% | pH (Rattus norvegicus [7]): 6.36 | Activity [8]: Non-Toxic | Activity (Rattus norvegicus [9]): 37.76% | Activity (Rattus norvegicus [10]): Active | Activity (Rattus norvegicus [11]): 38.85% | Activity (Rattus norvegicus [12]): Active | Activity (Rattus norvegicus [13]): Active | Activity (Rattus norvegicus [14]): Active | Activity (Rattus norvegicus [15]): 27.59% | Activity (Rattus norvegicus [16]): Active | Activity (Rattus norvegicus [17]): 49.25% | Activity (Rattus norvegicus [18]): Active | pH (Rattus norvegicus [19]): 7.17 | Activity (Rattus norvegicus [20]): 47.68%
